PMC3466204 (PLoS ONE, 2012)
Ends that are not written are not given here.

System: Lactococcus lactis HP
Experiment: Agarose-based assay of cell-free supernatants of S29X producing strains
Settings: for Zone Diameter (mm): agarose (1%) GM17 assay, 10 µl cell-free supernatant of overnight producing culture in 4.6 mm wells, L. lactis HP, 30°C; for % difference (zone relative to wild type): agarose assay of supernatants against L. lactis HP, wild type serine = 100
Protocol: Agarose-based deferred antagonism assays were carried out as follows: GM17/LB (0.03%) underlay was prepared with 10 mM sodium phosphate buffer (SPB) at pH 7.4 to which was added agarose (1% w/v agarose), autoclaved and cooled to 50°C. Bacteria grown to mid-logarithmic phase were harvested by centrifugation and washed with 10 mM SPB at pH 7.4. Bacteria were then added to 15 mls cooled underlay medium to reach a concentration of 2×10^7 colony-forming units (CFU)/mL. The inoculated medium was rapidly transferred into sterile Petri plates, allowed to solidify and dried. Wells (4.6 mm in diameter) were then made in the seeded plates. 10 µl volumes of cell-free supernatant from overnight nisin derivative producing cultures or resuspended purified peptides were then added to the wells and the plates incubated at 30°C (L. lactis) or 37°C (Gram positive strains) or RT (Gram negative strains) for 3 hours. Polymyxin B (Sigma Aldrich) was used at a concentration of 20 µg/ml. The plates were then overlaid with 15 mls of autoclaved double strength GM17 (L. lactis) or LB (Gram negatives) agarose (1% w/v agarose) overlay medium precooled to 50°C. The plates were then incubated overnight at the relevant temperature.

| Substance | Zone Diameter (mm) | % difference (zone relative to wild type) [%] |
| --- | --- | --- |
| S29C: nisin A S29 saturation derivative, cysteine at position 29 (ITSISLCTPGCKTGALMGCNMKTATCHCCIHVSK; not fully specified; cysteine pairing not given here; UniProt P13068 24-57, looked up, variant S29C) | 10.5±1.0 | 69 |
| S29F: nisin A S29 saturation derivative, phenylalanine at position 29 (ITSISLCTPGCKTGALMGCNMKTATCHCFIHVSK; not fully specified (bridges); also: lantibiotic nisin A (lanthionine rings, dehydrated residues not placed); UniProt P13068 24-57, looked up, variant S29F) | 11.0±1.0 | 72 |
| S29H: nisin A S29 saturation derivative, histidine at position 29 (ITSISLCTPGCKTGALMGCNMKTATCHCHIHVSK; not fully specified (bridges); also: lantibiotic nisin A (lanthionine rings, dehydrated residues not placed); UniProt P13068 24-57, looked up, variant S29H) | 10.9±0.3 | 72 |
| S29I: nisin A S29 saturation derivative, isoleucine at position 29 (ITSISLCTPGCKTGALMGCNMKTATCHCIIHVSK; not fully specified; cysteine pairing not given here; UniProt P13068 24-57, looked up, variant S29I) | 9.9±1.0 | 65 |
| S29K: nisin A S29 saturation derivative, lysine at position 29 (ITSISLCTPGCKTGALMGCNMKTATCHCKIHVSK; not fully specified (bridges); also: lantibiotic nisin A (lanthionine rings, dehydrated residues not placed); UniProt P13068 24-57, looked up, variant S29K) | 9.9±1.0 | 64 |
| S29L: nisin A S29 saturation derivative, leucine at position 29 (ITSISLCTPGCKTGALMGCNMKTATCHCLIHVSK; not fully specified; cysteine pairing not given here; UniProt P13068 24-57, looked up, variant S29L) | 12.7±0.7 | 84 |
| S29N: nisin A S29 saturation derivative, asparagine at position 29 (ITSISLCTPGCKTGALMGCNMKTATCHCNIHVSK; not fully specified; cysteine pairing not given here; UniProt P13068 24-57, looked up, variant S29N) | 12.6±1.0 | 83 |
| S29P: nisin A S29 saturation derivative, proline at position 29 (ITSISLCTPGCKTGALMGCNMKTATCHCPIHVSK; not fully specified (bridges); also: lantibiotic nisin A (lanthionine rings, dehydrated residues not placed); UniProt P13068 24-57, looked up, variant S29P) | 13.7±1.0 | 89 |
| S29Q: nisin A S29 derivative, glutamine at position 29, made by site-directed mutagenesis (ITSISLCTPGCKTGALMGCNMKTATCHCQIHVSK; not fully specified; cysteine pairing not given here; UniProt P13068 24-57, looked up, variant S29Q) | 15.3±0.1 | 100 |
| S29R: nisin A S29 saturation derivative, arginine at position 29 (ITSISLCTPGCKTGALMGCNMKTATCHCRIHVSK; not fully specified (bridges); also: lantibiotic nisin A (lanthionine rings, dehydrated residues not placed); UniProt P13068 24-57, looked up, variant S29R) | 11.0±0.6 | 72 |
| S29T: nisin A S29 saturation derivative, threonine at position 29 (ITSISLCTPGCKTGALMGCNMKTATCHCTIHVSK; not fully specified (bridges); also: lantibiotic nisin A (lanthionine rings, dehydrated residues not placed); UniProt P13068 24-57, looked up, variant S29T) | 12.1±0.9 | 79 |
| S29V: nisin A S29 saturation derivative, valine at position 29 (ITSISLCTPGCKTGALMGCNMKTATCHCVIHVSK; not fully specified (bridges); also: lantibiotic nisin A (lanthionine rings, dehydrated residues not placed); UniProt P13068 24-57, looked up, variant S29V) | 11.6±0.4 | 76 |
| S29W: nisin A S29 saturation derivative, tryptophan at position 29 (ITSISLCTPGCKTGALMGCNMKTATCHCWIHVSK; not fully specified; cysteine pairing not given here; UniProt P13068 24-57, looked up, variant S29W) | 12.1±1.2 | 79 |
| S29Y: nisin A S29 saturation derivative, tyrosine at position 29 (ITSISLCTPGCKTGALMGCNMKTATCHCYIHVSK; not fully specified (bridges); also: lantibiotic nisin A (lanthionine rings, dehydrated residues not placed); UniProt P13068 24-57, looked up, variant S29Y) | 10.6±0.6 | 70 |
